How the values were obtained:
[1] = Arrhenius equation; cited from earlier work
[2] = test system: E0771 mouse breast cancer cells; type: cell-based
Text: (§1) B16F10 mouse skin melanoma cells were maintained in DMEM (Gibco) supplemented with 10% fetal bovine serum (FBS, Corning), penicillin and streptomycin (Thermo Fisher). B16F10 cells were a generous gift from Dr. Edward Roy at the University of Illinois at Urbana-Champaign. E0771 mouse breast cancer cells (CH3 BioSystems) were maintained in RPMI-1640 (Gibco) supplemented with 10% FBS (Corning), penicillin and streptomycin (Thermo Fisher). For free-radical challenge experiments, 0.05% trypsin dissociated cells were counted and 1×10^4 cells per well were seeded in cell culture-treated 6 well plates (Thermo Fisher) 24 hours before the start of the experiment. […] Cells were then incubated up to 72 hours without media change and counted every 24 hours. […] Staining solution was then replaced by PBS and the cells were imaged on an Olympus inverted fluorescence microscope with 4× objective and FITC filter set. […] Live cells positively stained by Calcein-AM were counted using FIJI (NIH) and averaged over 4 counting fields per well at each time point (FIG. 12). For each image, only the green channel was analyzed. […] Using “Analyze Particles,” the distinct white areas from size 20 (to exclude small artifacts and debris) to size infinity were counted. Cell counts were then compiled and analyzed in Microsoft Excel. […]

[3] = test system: B16F10 mouse skin melanoma cells; type: cell-based
Text: as §1

Row | Compound | activation energy Ea of azo group decomposition [1] | pre-exponential factor A of azo group decomposition [1] | lethal dosage (positive control) [2] | lethal dosage (positive control) [3]
1 | CC(C#N)(CCC(=O)O)N=NC(C)(C#N)CCC(=O)O (stereo not shown) [ACVA, 4,4′-azobis (4-cyanovaleric acid)] | 132.9 kJ/mol | 6.21e+15 s⁻¹ | – | –
2 | OO [H2O2, hydrogen peroxide] | – | – | ~30 µM | ~50 µM

From patent publication US12201643B2, “Mechanochemical dynamic for focal cancer treatment” (THE BOARD OF TRUSTEES OF THE UNIVERSITY OF ILLINOIS, priority 2021, dated 2025)
